From PubChem BioAssay AID1259407 (Chemical Carcinogenesis Research Information System (CCRIS), 2018)
The source made the active and inactive calls. No rule for the calls is given here.

System: CCRIS mutagenicity, Ames/micronucleus/aberration tests
Experiment: CCRIS mutagenicity studies
[1] = Test System: AMES SALMONELLA TYPHIMURIUM, Strain/Indicator: TA98, Metabolic Activation: NONE, Method: STANDARD PLATE
[2] = Test System: AMES SALMONELLA TYPHIMURIUM, Strain/Indicator: TA98, Metabolic Activation: RAT, LIVER, S-9, AROCLOR 1254, Method: STANDARD PLATE
[3] = Test System: AMES SALMONELLA TYPHIMURIUM, Strain/Indicator: TA100, Metabolic Activation: NONE, Method: STANDARD PLATE

COCC(=O)O
mutagenic call (Test System: AMES SALMONELLA TYPHIMURIUM, Strain/Indicator: TA97A, Metabolic Activation: NONE, Method: STANDARD PLATE): inactive; negative
mutagenic call (Test System: AMES SALMONELLA TYPHIMURIUM, Strain/Indicator: TA97A, Metabolic Activation: RAT, LIVER, S-9, AROCLOR 1254, Method: STANDARD PLATE): inactive; negative
mutagenic call [1]: inactive; negative
mutagenic call [2]: inactive; negative
mutagenic call [3]: inactive; negative
mutagenic call (Test System: AMES SALMONELLA TYPHIMURIUM, Strain/Indicator: TA100, Metabolic Activation: RAT, LIVER, S-9, AROCLOR 1254, Method: STANDARD PLATE): inactive; negative
mutagenic call (Test System: AMES SALMONELLA TYPHIMURIUM, Strain/Indicator: TA102, Metabolic Activation: NONE, Method: STANDARD PLATE): inactive; negative
mutagenic call (Test System: AMES SALMONELLA TYPHIMURIUM, Strain/Indicator: TA102, Metabolic Activation: RAT, LIVER, S-9, AROCLOR 1254, Method: STANDARD PLATE): inactive; negative
mutagenic call (Test System: CHINESE HAMSTER OVARY, Strain/Indicator: CHO AS52 (GPT)/6-THIOGUANINE, Metabolic Activation: NONE): inactive; negative
mutagenic call (Test System: CHINESE HAMSTER OVARY, Strain/Indicator: CHO-K1-BH4 (HGPRT)/6-THIOGUANINE, Metabolic Activation: NONE): inactive; negative
mutagenic call (Test System: CHINESE HAMSTER OVARY, Strain/Indicator: CHO-K1-BH4 (HGPRT)/6-THIOGUANINE, Metabolic Activation: RAT, LIVER, S-9, AROCLOR 1254): inactive; negative

N#Cc1cccc2cccnc12
mutagenic call (Test System: AMES SALMONELLA TYPHIMURIUM, Strain/Indicator: TA100, Metabolic Activation: S-9, Method: PREINCUBATION): active; positive

CO/N=C(\C(=O)N[C@@H]1C(=O)N2C(C(=O)[O-])=C(C[n+]3ccn4ncccc43)CS[C@H]12)c1nsc(N)n1
mutagenic call [1]: inactive; negative
mutagenic call (Test System: AMES SALMONELLA TYPHIMURIUM, Strain/Indicator: TA98, Metabolic Activation: RAT, LIVER, S-9, SODIUM PHENOBARBITAL AND 5,6-BENZOFLAVONE, Method: STANDARD PLATE): inactive; negative
mutagenic call [3]: inactive; negative
mutagenic call (Test System: AMES SALMONELLA TYPHIMURIUM, Strain/Indicator: TA100, Metabolic Activation: RAT, LIVER, S-9, SODIUM PHENOBARBITAL AND 5,6-BENZOFLAVONE, Method: STANDARD PLATE): inactive; negative
mutagenic call (Test System: AMES SALMONELLA TYPHIMURIUM, Strain/Indicator: TA1535, Metabolic Activation: NONE, Method: STANDARD PLATE): inactive; negative
mutagenic call (Test System: AMES SALMONELLA TYPHIMURIUM, Strain/Indicator: TA1535, Metabolic Activation: RAT, LIVER, S-9, SODIUM PHENOBARBITAL AND 5,6-BENZOFLAVONE, Method: STANDARD PLATE): inactive; negative
mutagenic call (Test System: AMES SALMONELLA TYPHIMURIUM, Strain/Indicator: TA1537, Metabolic Activation: NONE, Method: STANDARD PLATE): inactive; negative
mutagenic call (Test System: AMES SALMONELLA TYPHIMURIUM, Strain/Indicator: TA1537, Metabolic Activation: RAT, LIVER, S-9, SODIUM PHENOBARBITAL AND 5,6-BENZOFLAVONE, Method: STANDARD PLATE): inactive; negative
mutagenic call (Test System: E. COLI, Strain/Indicator: WP2 UVRA, Metabolic Activation: NONE, Method: STANDARD PLATE): inactive; negative
mutagenic call (Test System: E. COLI, Strain/Indicator: WP2 UVRA, Metabolic Activation: RAT, LIVER, S-9, SODIUM PHENOBARBITAL AND 5,6-BENZOFLAVONE, Method: STANDARD PLATE): inactive; negative

Cc1ccc([N+](=O)[O-])c(C)c1[N+](=O)[O-]
mutagenic call (Test System: AMES SALMONELLA TYPHIMURIUM, Strain/Indicator: TA98, Metabolic Activation: NONE, Method: PREINCUBATION): inactive; negative
mutagenic call (Test System: AMES SALMONELLA TYPHIMURIUM, Strain/Indicator: TA98, Metabolic Activation: RAT, LIVER, S-9, KANECHLOR 500, Method: PREINCUBATION): inactive; negative
mutagenic call (Test System: AMES SALMONELLA TYPHIMURIUM, Strain/Indicator: TA100, Metabolic Activation: RAT, LIVER, S-9, KANECHLOR 500, Method: PREINCUBATION): active; positive

O=C1OC2(c3cc(Br)c(O)c(Br)c3Oc3c2cc(Br)c(O)c3Br)c2c(Cl)ccc(Cl)c21
mutagenic call (End Point: IN VIVO MICRONUCLEUS, Test System: BONE MARROW POLYCHROMATIC ERYTHROCYTES, Species: MOUSE, Strain/Sex: DDY/MALE, Route: IP): inactive; negative

CCCCB(CCCC)CCCC
mutagenic call (Test System: AMES SALMONELLA TYPHIMURIUM, Strain/Indicator: TA98, Metabolic Activation: HAMSTER, LIVER, S-9, AROCLOR 1254, Method: STANDARD PLATE): active; positive
mutagenic call [2]: active; positive
mutagenic call (Test System: AMES SALMONELLA TYPHIMURIUM, Strain/Indicator: TA100, Metabolic Activation: HAMSTER, LIVER, S-9, AROCLOR 1254, Method: STANDARD PLATE): active; positive
mutagenic call (Test System: MOUSE LYMPHOMA, Strain/Indicator: L5178Y (TK+/TK-), Metabolic Activation: NONE, Method: SUSPENSION/PLATE): inactive; negative. reevaluation of results: negative
mutagenic call (Test System: MOUSE LYMPHOMA, Strain/Indicator: L5178Y (TK+/TK-), Metabolic Activation: RAT, LIVER, S-9, AROCLOR 1254, Method: SUSPENSION/PLATE): inactive; negative. reevaluation of results: negative
